# Measured values from patent US20120142766A1, “SUBSTITUTED 1,3-DIOXANES AND THEIR USES” (EVOLVA SA, priority 2007, published 2012).
# Legend:
# [1] = system: KKA^y mice; assay: KKAy mice on high fat diet, 14-day oral gavage BID; assay type: in vivo, mouse
# Method: 52 male KKA^y mice are obtained commercially (e.g., from Clea Japan) at an age of 6 weeks and put on a high fat diet upon arrival. Individual mice were housed in IVC Type II cages during both the acclimatization and the experimental phase. Both food (high fat diet) and water are supplied ad libitum.
# 1 animal per cage. […] Lights on at 06:00 a.m. Temperature: 21-25° C. Relative humidity target range: 55-60%.
# Mice were randomized into treatment groups according to their 4-h fasting blood glucose.
# 4 hours after the last administration, non-fasting conditions.
# Gamma irradiated high fat diet is commercially available (e.g., Research Diets, Inc. New Brunswick, N.J. (Product # D12266BI)).
# Blood is collected into heparin containing glass capillaries which are subsequently centrifuged in a “Haematokrit 24” centrifuge (Hettich) at 15′200×g for 10 minutes at room temperature to obtain the hematocrit value.
# The following serum parameters are determined on a COBAS INTEGRA 800 auto analyzer (Roche Diagnostics, Switzerland) using the reagents and protocols provided by the supplier.
# All measurements are made on Day 14 of administration, except for the food intake and body weight measurements that are made on Day 12.
# [2] = biological target: T1, Thromboxane receptor (TP) (Homo sapiens, UniProt P21731); assay: TP receptor radioligand binding ([3H] SQ-29548); conditions: Human recombinant HEK-293 cells
# T1 construct: expressed in transfected cells; host or cells: HEK-293
# T1 sequence (P21731 1-343): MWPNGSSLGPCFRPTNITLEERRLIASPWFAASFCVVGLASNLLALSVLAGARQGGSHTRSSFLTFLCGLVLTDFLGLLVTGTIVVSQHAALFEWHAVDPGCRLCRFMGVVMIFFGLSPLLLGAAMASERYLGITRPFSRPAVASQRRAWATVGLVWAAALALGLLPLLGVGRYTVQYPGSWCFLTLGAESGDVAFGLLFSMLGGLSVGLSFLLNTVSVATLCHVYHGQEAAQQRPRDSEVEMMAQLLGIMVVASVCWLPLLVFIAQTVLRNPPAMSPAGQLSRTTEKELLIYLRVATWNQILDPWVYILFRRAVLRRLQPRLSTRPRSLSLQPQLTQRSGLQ
# Method: The compounds were tested on radioligand binding assays for thromboxane receptor binding essentially as described by Hedberg et al. (1988) J. Pharmacol. Exp. Ther. 245:786-792 and Saussy et al. (1986) J. Biol. Chem. 261: 3025-3029 according to the following:
# TP Receptor Radioligand Binding Studies:
# Human recombinant HEK-293 cells,
# Incubation Time, Temp: 30 minutes at 25° C.
# Incubation Buffer: 50 mM Tris-HCl, pH 7.4, 154 mM NaCl
# Non-Specific Ligand: 1 μM SQ-29548
# The data were transformed to semi-log and then analysed using non-linear regression to a four-parameter dose-response curve Y=Bottom+(Top−Bottom)/(1+10̂((LogEC50−X)*HillSlope)) using the log(agonist) vs. response—Variable slope function of GraphPad Prism software (http://graphpad.com/help/prism5/prism5help.html?usitignonlinear_regression_step_by_s.htm).
# [3] = biological target: T2, Thromboxane synthase (Homo sapiens, UniProt P24557); assay: Human platelet thromboxane synthase assay; assay type: biochemical
# T2 construct: Human Platelet Thromboxane Synthase Assay; from tissue; host or cells: human platelets
# T2 sequence (P24557 1-533): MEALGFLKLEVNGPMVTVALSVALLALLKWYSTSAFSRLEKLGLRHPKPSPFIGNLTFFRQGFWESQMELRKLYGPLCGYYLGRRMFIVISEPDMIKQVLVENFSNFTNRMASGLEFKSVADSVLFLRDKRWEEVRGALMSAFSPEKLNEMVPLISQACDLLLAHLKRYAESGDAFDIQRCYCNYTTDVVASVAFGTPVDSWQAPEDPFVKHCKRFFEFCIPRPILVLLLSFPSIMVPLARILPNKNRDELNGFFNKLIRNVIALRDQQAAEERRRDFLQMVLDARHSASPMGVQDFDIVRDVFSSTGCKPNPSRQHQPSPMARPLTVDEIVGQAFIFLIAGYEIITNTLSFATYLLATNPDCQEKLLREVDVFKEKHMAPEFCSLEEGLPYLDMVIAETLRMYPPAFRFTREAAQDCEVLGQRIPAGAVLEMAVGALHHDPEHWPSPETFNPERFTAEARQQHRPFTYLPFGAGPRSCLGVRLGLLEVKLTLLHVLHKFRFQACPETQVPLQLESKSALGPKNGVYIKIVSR
# Method: The compounds were tested for thromboxane synthase inhibition essentially as described by Borsch-Haubold A G, Pasquet S, Watson S P. (1998) Direct inhibition of cyclooxygenase-1 and -2 by the kinase inhibitors SB 203580 and PD 98059. […] 1. Imidazole derivatives. J Med. Chem. (10):1139-48 according to the following:
# Pre-incubation time, temp: 15 minutes at 25° C. Incubation time, temp: 3 minutes at 25° C.
# Incubation Buffer: 10 mM Tris-HCl, pH 7.4
# Quantification Method: EIA quantification of TxB2
# [4] = system: arterial thrombosis in a mouse model; assay: Arterial thrombosis mouse model (FeCl3 on femoral artery); assay type: in vivo
# Method: The solutions are diluted 3.3-fold in saline and 100 μl/25 g is injected. Thus, the above-mentioned doses of 100 and 300 mg/kg of compound correspond to final doses of 30 and 100 mg/kg.
# During the experiments, a soluble salt of the drug is provided (potassium salt of compound C), diluted in saline. Of this formulation, 100 μl/25 g is injected i.v. in the tail vein (dose of 100 mg/kg).
# Solutions are injected (100 μl/25 g body weight) i.v. in the tail vein over 2 min to obtain doses of each compound of 30 mg/kg and 100 mg/kg. Aspirin is given the same way at a dose of 200 mg/kg. Clopidogrel is administered by oral gavage at a dose of 20 mg/kg at 6-7 hours prior to the experiment. The animals assigned to each group are matched for body weight. Mice are typically 8-10 weeks old males and are in a 100% Swiss genetic background.
# The flow in each image is expressed as a percentage of that at the contralateral side, and data are averaged for all 120 images to determine total flow. The same analysis is performed for 10 min intervals (which gives essentially the same information as the area under the curve). […] Flow before treatment is recorded as 100%, and that in occluded arteries as 0%. At the end of the experiment, blood is collected on 0.01M citrate by heart puncture for determination of blood cell counts. Plasma is prepared by centrifugation and stored at −20° C. for determination of drug levels.
# Statistical analysis for differences between two groups is performed by non-parametric Student t-test. Occlusion times >30 min were considered equal to 30 min for statistical analysis. Significance is set at p<0.05.
# [5] = system: New Zealand Rabbit platelet rich plasma; assay: TP receptor platelet aggregation, rabbit (U-46619-induced); assay type: cell-based
# Method: Thrombosis Research 33:277-288.
# TP Receptor Platelet Aggregation—Rabbit:
# New Zealand Rabbit (2.75±0.25 kg) platelet rich plasma
# Assay: Inhibition of 1.5 μM U-46619-induced platelet aggregation Incubation Time, Temp: 5 minutes at 37° C. Incubation Buffer Trisodium Citrate (0.13 M)-treated platelet rich plasma
# Time of Assessment: 5 minutes
# Quantification Method Optical Density Change
# [6] = biological target: T3, Human Recombinant (E. coli) PPARgamma (Homo sapiens, UniProt P37231); assay: PPAR gamma binding assay ([3H]-rosiglitazone); conditions: [3H]-rosiglitazone 10 nM; read-out: PPARγ binding IC50
# T3 construct: host or cells: E. coli
# T3 sequence (P37231 1-505): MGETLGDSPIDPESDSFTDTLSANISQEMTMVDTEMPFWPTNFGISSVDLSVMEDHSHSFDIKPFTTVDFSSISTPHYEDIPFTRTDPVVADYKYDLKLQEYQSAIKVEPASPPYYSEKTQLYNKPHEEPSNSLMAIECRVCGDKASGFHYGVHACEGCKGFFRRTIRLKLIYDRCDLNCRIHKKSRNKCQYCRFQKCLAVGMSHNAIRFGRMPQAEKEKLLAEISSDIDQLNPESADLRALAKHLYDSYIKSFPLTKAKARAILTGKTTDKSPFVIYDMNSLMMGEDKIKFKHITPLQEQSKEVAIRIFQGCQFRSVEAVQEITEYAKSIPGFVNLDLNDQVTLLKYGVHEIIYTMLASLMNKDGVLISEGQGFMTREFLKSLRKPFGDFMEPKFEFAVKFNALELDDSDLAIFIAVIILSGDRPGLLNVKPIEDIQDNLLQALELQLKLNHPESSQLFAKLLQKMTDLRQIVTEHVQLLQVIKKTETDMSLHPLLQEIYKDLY
# Method: Incubation: 120 min. at 4° C.
# The results are expressed as a percent of control specific binding ((measured specific binding/control specific binding)×100) obtained in the presence of the test compounds. The IC50 values (concentration causing a half-maximal inhibition of control specific binding) and Hill coefficients (nil) were determined by non-linear regression analysis of the competition curves generated with mean replicate values using Hill equation curve fitting (Y=D+[(A−D)/(1+(C/C50)nH)], where Y=specific binding, D=minimum specific binding, A=maximum specific binding, C=compound concentration, C50=IC50, and nH=slope factor). This analysis was performed using a software developed at Cerep (Hill software) and validated by comparison with data generated by the commercial software SigmaPlot® 4.0 for Windows® (© 1997 by SPSS Inc.). The inhibition constants (Ki) were calculated using the Cheng Prusoff equation (Ki=IC50/(1+(L/KD)), where L=concentration of radioligand in the assay, and KD=affinity of the radioligand for the receptor).
# [7] = 5 mg/kg BID oral gavage, Day 12, mean ± S.E.M.
# [8] = 5 mg/kg BID oral gavage, Day 14, mean ± S.E.M.
# [9] = 14-day BID, enoic acid 53 mg/kg, rosiglitazone 5 mg/kg, Compounds 3 and 13 dose not stated
# [10] = Oryctolagus cuniculus, Platelet, 1.5 μM U-46619-induced
structure (smiles),measurement,setting,value
CN(CCOc1ccc(CC2SC(=O)NC2=O)cc1)c1ccccn1 (stereo not shown) [Rosiglitazone],Body Weight,[1]; [7],49.5 ± 1.0 g
same,Food Intake,[1]; [7],4.5 ± 0.6 g/day
same,ALP,[1]; [8],26.0 ± 1.7 dU/L
same,ALT,[1]; [8],8.9 ± 0.9 dU/L
same,AST,[1]; [8],10.1 ± 0.9 dU/L
same,FFA,[1]; [8],1.3 ± 0.1 mM
same,Fructosamine,[1]; [8],0.35 ± 0.03 mM
same,HDL,[1]; [8],3.6 ± 0.2 mM
same,HbA1C,[1]; [8],7.8 ± 0.4 %
same,Heart weight,[1]; [8],226.2 ± 6.9 mg
same,Hematocrit,[1]; [8],40.3 ± 1.5%
same,Insulin,[1]; [8],17.9 ± 4.2 µg/L
same,Serum Glucose,[1]; [8],18.8 ± 2.2 mM
same,TG,[1]; [8],1.0 ± 0.2 mM
same,Total Cholesterol,[1]; [8],4.0 ± 0.4 mM
same,Body weight (in words),[1]; [9],increased
same,Heart weight (in words),[1]; [9],increased
O=C(O)CC/C=C\C[C@@H]1COC(c2ccccc2-c2ccccc2)O[C@@H]1c1ccccc1O (stereo partly shown) [Compound 10],inhibition at 10 µM,[2],102%
same,IC50,[2]; 5 nM [3H] SQ-29548,11 nM
same,Ki,[2]; 5 nM [3H] SQ-29548,7.2 nM
same,IC50,[3],840 nM
same,Thromboxane synthase Human platelet Inhibition (%) at 5 μM,[3]; 5 μM,76%
same,inhibition at 5 µM,[3]; 5 μM,75%
same,Inhibition of thromboxane synthase (in words),[3]; Table 2,inhibitors of thromboxane synthase
same,Occlusion time,[4]; dose not given,prolongs the occlusion time
same,Total blood flow,[4]; dose not given,improves total blood flow
same,inhibition at 30 µM,"[5]; Oryctolagus cuniculus, Platelet, 30 μM, 1.5 μM U-46619-induced",100%
same,Inhibition of platelet aggregation (in words),[5]; Table 2,potent inhibitors of platelet aggregation
O=C(O)CC/C=C\C[C@@H]1COC(c2ccccc2Oc2ccc(F)cc2)O[C@@H]1c1ccccc1O (stereo partly shown) [Compound 4],inhibition at 10 µM,[2],100%
same,inhibition at 5 µM,[3]; 5 μM,39%
same,IC50,[6],2100 nM
same,inhibition at 10 µM,[5]; [10],100%
COc1ccc(C(=O)NCc2cccnc2)cc1C(=O)NCc1cccnc1 [Picotamide],IC50,[3],10100 nM
same,inhibition at 10 µM,[3]; 10 μM,53%
same,inhibition at 100 µM,"[5]; Oryctolagus cuniculus, Platelet, 100 μM, 1.5 μM U-46619-induced",36%
CC(=O)Oc1ccccc1C(=O)O [Aspirin],Occlusion time,[4]; 200 mg/kg i.v.,no effect on the occlusion time
same,Total blood flow,[4]; 200 mg/kg i.v.,no significant effect on the total blood flow
"COc1ccccc1C1OC(c2ccccc2Cl)OCC1C/C=C\CCC(=O)O (stereo not shown) [Compound D, (Z)-6-(-2-(2-chlorophenyl)-4-(2-methoxyphenyl)-1,3-dioxan-5-yl)hex-4-enoic acid]",inhibition at 10 µM,[2],98%
same,inhibition at 5 µM,[3]; 5 μM,12%
same,IC50,[6],21000 nM
same,inhibition at 10 µM,[5]; [10],33%
COC(=O)[C@H](c1ccccc1Cl)N1CCc2sccc2C1 [Clopidogrel],Total blood flow,[4]; 20 mg/kg oral gavage 6-7 hours prior,significantly improved total blood flow
"O=C(O)CC/C=C\C[C@@H]1COC(c2ccc(Nc3ccccc3)cc2)O[C@@H]1c1ccccc1O (mixture of isomers) [Compound 3, (Z)-6-(4-(2-Hydroxyphenyl)-2-(4-(phenylamino)phenyl)-1,3-dioxan-5-yl)hex-4-enoic acid]",Body weight (in words),[1]; [9],do not alter body weight
same,FFA (in words),[1]; [9],decreases the FFA
same,HbA1c levels (in words),[1]; [9],decreased
same,Heart weight (in words),[1]; [9],no effect on heart weight
